Data as given in patent US20090061022A1, “Pharmaceutical composition comprising arsenite for the treatment of malignancy” (priority 2004, published 2009).
Several values for one entry are separate records, joined by “and”; a condition that tells them apart may be missing. Identical values can stand only once.

How the values were obtained:
RXF 944LX = experiment: Dose finding study in human renal cancer model RXF 944LX in nude mice (i.p. days 0, 7, 14); settings: for BW loss % (day) / Drug-related deaths / Rating / SGD (specific growth delay) / T/C %: days 0, 7, 14
Source text: In a dose finding study, the potential anticancer activity of sodium meta-arsenite and arsenic acid sodium salt versus arsenic trioxide was examined in the human renal cancer model, RXF 944LX.
Cancer fragments (1-2 mm in diameter), obtained from xenografts in serial passage in nude mice, were implanted subcutaneously (S.C.) in a flank of male NRMI nude mice (one fragment per mouse). Mice with appropriate cancer volumes (5-7 mm in diameter) were randomly distributed to treatment and control groups (4 mice/group). The start of treatment was day 0. Cancer volume and body weights were measured at least twice per week.
1) Sodium meta-arsenite (3, 10, 30 mg/kg/day), 2) Arsenic acid sodium salt (3, 10, 30 mg/kg/day) and 3) Arsenic trioxide (3, 10, 30 mg/kg/day) were administered intraperitoneally (i.p.) once daily on days 0, 7 and 14.
Stock solution of sodium meta-arsenite and arsenic acid sodium salt (3 mg/ml) were prepared in 5% (w/v) dextrose solution, respectively, to minimize acute arsenic toxicity. For arsenic trioxide, 9 mg of arsenic trioxide was dissolved in 1M NaOH (75 μl) followed by mixing with sterile aqua injectabilia (2175 μl) and sterile 20% (w/v) dextrose in water (500 μl). Further dilution to the desired concentration was done with a 5% dextrose solution to give a final concentration of 3 mg/ml.
The cancer volume of each animal was determined by two-dimensional measurement using calipers. The volume was calculated according to the formula: (a×b^2)×0.5; wherein a and b represent two perpendicular diameters in which a (length) is the larger diameter and b (width) the smaller diameter.
Relative cancer volumes (RCV) were calculated for each individual cancer by dividing the cancer volume on day X by the cancer volume on day 0 multiplied by 100%. The cancer volume of a treatment group was expressed as the median RCV of all mice of the group. Median RCV values were used for drawing growth curves and treatment evaluation. Optimal cancer growth inhibition at a particular day within the treatment period was calculated from the median RCV values of the treated (T) versus the controlled (C) group multiplied by 100%. A T/C value<50% was considered as anti-cancer activity.

ALL-SCID 4 = experiment: Anticancer activity in human leukemia model ALL-SCID 4; settings: for BW loss % (day) / Drug-related deaths / T/C %: days 25-35
Source text: Anticancer activity of the sodium meta-arsenite and arsenic trioxide against two human paediatric acute lymphoblastic leukemia (ALL) models in vivo, ALL-SCID 4 was investigated to compare.
Male NOD/SCID mice (deficient in T and B lymphocytes, NK cells and functional macrophages) were transplanted s.c. on day 0 with fragments of ALL-SCID 4 cancers, which were obtained from mice used for routine passage of the cancers. Mice were randomized to the scheduled treatment groups.
Sodium meta-arsenite was administered orally at 2, 4 and 6 mg/kg/day (⅓ MTD, ⅔ MTD and MTD) once every day from day 34-54 after transplantation. The vehicle control (5% glucose in water) was administered i.p. (10 ml/kg).
Sodium meta-arsenite was dissolved in ready-to-use sterile infusion (5% (w/v) glucose in aqua injectabila). Arsenic trioxide was dissolved in 25 mM NaOH then dissolved in 5% glucose in aqua injectabila. The solutions were prepared freshly on the day of therapy for each administration.

[1] = rats, orally; cited from earlier work
[2] = cold water; cited from earlier work
[3] = system: panel of forty-one (41) human cancer cell lines; experiment: Cytotoxic activity, panel of forty-one (41) human cancer cell lines
Source text: In a next study, the cytotoxic activity of sodium meta-arsenite was head-to-head compared with arsenic trioxide in panels loaded with 41 cancer cell lines from ten human cancers.

[4] = 10 mg/kg i.p., listed as arsenic trioxide
[5] = panel of 41 human cancer cell lines

Substance: arsenic trioxide
- BW loss % (day) (RXF 944LX; 3 mg/kg i.p.): +8.4 (14) %
- Drug-related deaths (RXF 944LX; 3 mg/kg i.p.): 0/4
- Rating (RXF 944LX; 3 mg/kg i.p.): + (+T/C < 50)
- SGD (specific growth delay) (RXF 944LX; 3 mg/kg i.p.): −0.1
- T/C % (RXF 944LX; 3 mg/kg i.p.): 31%
- BW loss % (day) (RXF 944LX; 10 mg/kg i.p.): −5.0 (11) %
- Drug-related deaths (RXF 944LX; 10 mg/kg i.p.): 1/4
- Rating (RXF 944LX; 10 mg/kg i.p.): + (+T/C < 50)
- SGD (specific growth delay) (RXF 944LX; 10 mg/kg i.p.): −0.2
- T/C % (RXF 944LX; 10 mg/kg i.p.): 41%
- BW loss % (day) (RXF 944LX; [4]): 5%
- Drug-related deaths (RXF 944LX; [4]): one (1) out of four (4) mice died
- Drug-related deaths (RXF 944LX; 30 mg/kg i.p.): 4/4
- Drug-related deaths (RXF 944LX; 30 mg/kg i.p., listed as arsenic trioxide): died within a few days after the first injection
- Maximum Tolerated Dose (MTD) (RXF 944LX; i.p. once daily on days 0, 7 and 14, RXF 944LX bearing nude mice): 10 mg/kg/day
- BW loss % (day) (ALL-SCID 4; 2 mg/kg i.p.): +9 (34) %
- Drug-related deaths (ALL-SCID 4; 2 mg/kg i.p.): 0/8
- T/C % (ALL-SCID 4; 2 mg/kg i.p.): 71%
- BW loss % (day) (ALL-SCID 4; 4 mg/kg i.p.): +10 (34) %
- Drug-related deaths (ALL-SCID 4; 4 mg/kg i.p.): 0/8
- T/C % (ALL-SCID 4; 4 mg/kg i.p.): 97%
- BW loss % (day) (ALL-SCID 4; 6 mg/kg i.p.): +10 (34) %
- Drug-related deaths (ALL-SCID 4; 6 mg/kg i.p.): 0/8
- T/C % (ALL-SCID 4; 6 mg/kg i.p.): 58%
- MTD (ALL-SCID 4; small dose finding studies prior to the ALL-SCID 4 study): 6 mg/kg/day
- LD50 [1]: 15.1 mg/kg
- Solubility [2]: sparingly and extremely slowly soluble
- activity in panel of 41 ([3]; 0.1 μg/ml, 0.01 μg/ml and 0.001 μg/ml): no observed activity
- cancer cell lines that responded, percent of 41 ([3]; 1 μg/ml, more than 70% growth inhibition): 2%
- cancer cell lines in which active, percent of 41 ([3]; 10 μg/ml): 56%
- selectivity (individual IC70<½ mean IC70), fraction of cell lines ([3]; breast (mammary) cancer cell lines): ¼
- selectivity (individual IC70<½ mean IC70), fraction of cell lines ([3]; leukemia cell lines): ¾
- selectivity (individual IC70<½ mean IC70), fraction of cell lines ([3]; melanoma cell lines): 2/7
- fold less potent compared to sodium meta-arsenite, IC50 ([3]; on the basis of μM): 17 fold
- fold less potent compared to sodium meta-arsenite, IC70 ([3]; on the basis of μM): 12 fold
- fold less potent compared to sodium meta-arsenite, IC50 ([3]; on μg/ml): 27 fold
- fold less potent compared to sodium meta-arsenite, IC70 ([3]; on μg/ml): 18 fold
- Mean IC50 [3, 5]: 3.462 µg/mL
- Mean IC70 [3, 5]: 6.022 μg/ml and 30.44 μM
- Mean IC90 [3, 5]: 10.307 µg/mL
- Mean IC70 ([3]; panel of 41 human cancer cell lines, listed as arsenic trioxide): 6.022 μg/ml and 30.44 μM
- IC50 ([3]; read-out: Mean IC50, panel of 41 human cancer cell lines): 17.5 µM
- IC90 ([3]; read-out: Mean IC90, panel of 41 human cancer cell lines): 52.1 µM
